Reference: US11447484B2, “Cyclic compound having dopamine D3 receptor antagonistic effect” (Shionogi & Co., Ltd., priority 2018, dated 2022)

Key:
[1] = target: human recombinant D2 receptor (Homo sapiens (Human), UniProt P14416); assay: Test of binding inhibition for dopamine D2 receptor; settings: Jump-In HEK cell membranes, 1.2 nM [3H]-Methylspiperone, 120 min at 25° C.; read-out: hD2_Ki
Experimental: Test Example 2: Test of Binding Inhibition for Dopamine D2 Receptor
(§1) (Experimental Conditions)
Cell membranes: Jump-In HEK cell membranes expressing human recombinant D2 receptor (2 μg/well)
(§2) Buffer solution: 50 mM Tris-HCl (35409-45, Nacalai Tesque) (pH 7.4) containing 120 mM NaCl (31320-05, Nacalai Tesque), 1 mM MgCl2.6H2O (20909-55, Nacalai Tesque), 5 mM KCl (28514-75, Nacalai Tesque) and 2 mM CaCl2 (067-31, NAKARAI CHEMICALS, LTD.)
Radioligand: (final concentration) 1.2 nM [^3H]-Methylspiperone ([^3H—N-methyl-]-Methylspiperone, NET-856, 83.8 Ci/mmol, PerkinElmer)
Non-specific ligand: (final concentration) 10 μM Butaclamol [(+)-Butaclamol Hydrochloride, D033; Sigma]
(§3) SPA beads solution: SPA beads [WGA PVT SPA Scintillation Beads, RPNQ0001 (500 mg), RPNQ0060 (2 g), PerkinElmer] (0.2 mg/well)
(§4) Incubation time and temperature: 120 min at 25° C.
(§5) Butaclamol or the compounds of the present invention were weighed and DMSO was added to make a 10 mM solution. This solution was diluted to each concentration.
[^3H]-Methylspiperone was weighed and the buffer solution was added to make a 3.6 nM solution.
(§6) SPA beads were weighed and stirred in water to make a 50 mg/mL solution. Using this solution, a mixture with the cell membranes was prepared.
(§7) 225 nL of the solutions of the non-specific ligand or the compounds of the present invention at each concentration (in case of vehicle, final concentration 0.3% DMSO) were added in each well of a 384-well white/clear bottom microplate (3706, Corning). Jump-In HEK Cell membranes (final reaction amount: 2 μg protein/well), the SPA bead solution (final reaction amount: 0.2 mg/well) and the buffer solution were mixed and the mixed solution was left still for 1 hour or more at 4° C. Then, 50 μL of the mixture was added to each well of the plate. In addition, 25 μL of 3.6 nM [^3H]-Methylspiperone (final concentration: 1.2 nM) was added to each well. The plate was sealed by putting TopSeal-A 96/384 well (6050185, PerkinElmer) on the top of the plate, mixed using stirring deaerator (Well Tornado, FK-62, Sakaki-elc.) and incubated for 120 min at 25° C. After incubation, the radioactivity of [^3H]-Methylspiperone which was bonded to D2 receptor was determined by liquid scintillation counter (1450 Microbeta, PerkinElmer) in each well. Non-specific binding was calculated based on the radioactivity of [^3H]-Methylspiperone in the presence of 10 μM non-labeled Butaclamol. The total binding was calculated using the radioactivity of [^3H]-Methylspiperone in the absence of the compounds of the present invention (vehicle). The Ki values were calculated from dose-response curves.
(§8) Binding activities of the compounds of the present invention were calculated from the following Binding Inhibition Rate (%): Inhibition Rate(%)=[1−(c−a)/(b−a)]×100 • a: Average cpm of non-specific binding • b: Average cpm of total binding • c: Cpm in the presence of each test compound

[2] = target: P-gp (human MDR1-expressing cells) (Homo sapiens (Human), UniProt P08183); assay: P-gp substrate test; format: in vitro ADME; settings: efflux ratio (B→A/A→B) of MDR1-expressing cells compared with parent cells, Transwell monolayer
Sequence of P-gp (human MDR1-expressing cells) (P08183 whole entry): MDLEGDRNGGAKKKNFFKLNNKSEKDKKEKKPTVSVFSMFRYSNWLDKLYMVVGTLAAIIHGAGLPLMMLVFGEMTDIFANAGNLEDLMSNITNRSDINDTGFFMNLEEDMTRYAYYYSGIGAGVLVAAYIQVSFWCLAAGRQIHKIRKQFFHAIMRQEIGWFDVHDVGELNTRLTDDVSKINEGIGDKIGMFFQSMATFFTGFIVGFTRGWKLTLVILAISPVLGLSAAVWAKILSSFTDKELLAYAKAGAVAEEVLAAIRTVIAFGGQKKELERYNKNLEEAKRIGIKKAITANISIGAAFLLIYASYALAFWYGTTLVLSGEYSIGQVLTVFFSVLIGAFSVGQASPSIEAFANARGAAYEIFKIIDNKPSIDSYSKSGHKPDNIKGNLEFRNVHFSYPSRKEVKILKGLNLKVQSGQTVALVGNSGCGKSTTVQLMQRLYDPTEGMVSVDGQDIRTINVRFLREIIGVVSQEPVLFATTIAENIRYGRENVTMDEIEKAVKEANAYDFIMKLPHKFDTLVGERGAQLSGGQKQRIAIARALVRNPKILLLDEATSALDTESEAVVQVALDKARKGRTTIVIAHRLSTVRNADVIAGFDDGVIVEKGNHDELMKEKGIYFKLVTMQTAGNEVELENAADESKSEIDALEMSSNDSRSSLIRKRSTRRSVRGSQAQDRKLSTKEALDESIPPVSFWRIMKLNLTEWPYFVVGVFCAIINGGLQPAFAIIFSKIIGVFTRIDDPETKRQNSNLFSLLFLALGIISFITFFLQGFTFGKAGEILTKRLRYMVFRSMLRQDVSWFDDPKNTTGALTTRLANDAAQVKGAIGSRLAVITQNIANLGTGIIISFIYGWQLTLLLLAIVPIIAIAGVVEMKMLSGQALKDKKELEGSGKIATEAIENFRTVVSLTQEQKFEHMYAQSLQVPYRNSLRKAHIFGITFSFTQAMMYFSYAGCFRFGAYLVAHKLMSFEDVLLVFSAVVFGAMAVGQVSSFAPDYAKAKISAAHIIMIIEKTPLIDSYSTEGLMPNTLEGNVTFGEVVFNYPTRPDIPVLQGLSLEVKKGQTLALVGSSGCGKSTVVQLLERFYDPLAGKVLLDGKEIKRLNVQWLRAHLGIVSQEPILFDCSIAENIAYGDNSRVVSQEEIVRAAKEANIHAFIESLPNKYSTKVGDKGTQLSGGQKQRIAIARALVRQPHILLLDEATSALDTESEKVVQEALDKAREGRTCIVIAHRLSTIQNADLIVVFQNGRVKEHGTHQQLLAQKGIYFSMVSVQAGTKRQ
Experimental: Test Example 14: P-gp Substrate Test
The compound of the present invention was added to one side of Transwell (registered trademark, CORNING) where human MDR1-expressing cells or parent cells have been monolayer-cultured. The cells were reacted for a constant time. The membrane permeability coefficients from the apical side toward the basolateral side (A→B) and from the basolateral side toward the apical side (B→A) were calculated for the MDR1-expressing cells or the parent cells, and the efflux ratio (ER; ratio of the membrane permeability coefficients of B→A and A→B) values of the MDR1-expressing cells and the parent cells were calculated. The efflux ratio (ER) values of the MDR1-expressing cells and the parent cells were compared to confirm whether or not the compound of the present invention would be a P-gp substrate.

[3] = target: human recombinant D3 receptor (Homo sapiens (Human), UniProt P35462); assay: Test of binding inhibition for dopamine D3 receptor; settings: Jump-In HEK cell membranes, 2 nM [3H]-Methylspiperone, 120 min at 25° C.; read-out: hD3_Ki
Sequence of human recombinant D3 receptor (P35462 whole entry): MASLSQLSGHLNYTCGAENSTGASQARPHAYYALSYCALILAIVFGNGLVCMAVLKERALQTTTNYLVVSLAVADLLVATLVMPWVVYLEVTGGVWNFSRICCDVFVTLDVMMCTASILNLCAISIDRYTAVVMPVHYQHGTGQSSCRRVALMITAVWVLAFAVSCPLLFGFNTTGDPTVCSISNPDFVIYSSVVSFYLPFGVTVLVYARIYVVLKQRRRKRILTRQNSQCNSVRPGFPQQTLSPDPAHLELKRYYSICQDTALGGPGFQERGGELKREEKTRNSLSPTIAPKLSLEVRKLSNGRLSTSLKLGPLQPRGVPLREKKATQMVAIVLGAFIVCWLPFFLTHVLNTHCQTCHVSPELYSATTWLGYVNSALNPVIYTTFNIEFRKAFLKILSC
Experimental: Test Example 1: Test of Binding Inhibition for Dopamine D3 Receptor
as §1
Cell membranes: Jump-In HEK cell membranes expressing human recombinant D3 receptor (4 μg/well)
as §2
Radioligand: (final concentration) 2 nM [^3H]-Methylspiperone ([^3H—N-methyl-]-Methylspiperone, NET-856, 83.8 Ci/mmol, PerkinElmer)
Non-specific ligand: (final concentration) 10 μM Butaclamol [(+)-Butaclamol Hydrochloride, D033, Sigma]
as §3, §4, §5
[^3H]-Methylspiperone was weighed and the buffer solution was added to make a 6 nM solution.
as §6
as §7, with “amount: 4” for “amount: 2”, “SPA beads” for “SPA bead”, “of 6” for “of 3.6”, “concentration: 2” for “concentration: 1.2”, “(6050185, PerkinElmer, Inc.)” for “(6050185, PerkinElmer)”, “to D3” for “to D2”
as §8

Sequence of human recombinant D2 receptor (P14416 whole entry): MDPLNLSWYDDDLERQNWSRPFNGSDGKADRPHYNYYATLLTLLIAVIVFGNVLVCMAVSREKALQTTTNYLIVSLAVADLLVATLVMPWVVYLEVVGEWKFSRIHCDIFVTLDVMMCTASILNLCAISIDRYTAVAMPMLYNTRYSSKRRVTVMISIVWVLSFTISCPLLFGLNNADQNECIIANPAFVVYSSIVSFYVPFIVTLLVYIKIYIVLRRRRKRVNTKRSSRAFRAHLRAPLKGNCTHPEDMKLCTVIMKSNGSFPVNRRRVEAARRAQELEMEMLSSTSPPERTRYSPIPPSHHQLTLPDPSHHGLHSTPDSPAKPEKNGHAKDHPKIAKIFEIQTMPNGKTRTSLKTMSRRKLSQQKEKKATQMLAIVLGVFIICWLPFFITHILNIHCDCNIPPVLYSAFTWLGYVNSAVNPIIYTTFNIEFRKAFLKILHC

## CCc1cc(C23CC2CN(CC[C@H]2CC[C@H](NC(=O)c4cccc5nn(C)cc45)CC2)C3)no1 (some centres unmarked) [Compound I-034]
[1]
  Ki: 730 nM
[2]
  P-gp ER ratio: 1.3
[3]
  Ki: 0.71 nM

## Cc1cnc(CC(=O)N[C@H]2CC[C@H](CCN3C[C@@H]4C[C@]4(c4cc(C(C)(F)F)on4)C3)CC2)o1 [Compound I-040]
[1]
  Ki: 350 nM
[3]
  Ki: 0.56 nM

## Cc1ncc(CC(=O)N[C@H]2CC[C@H](CCN3C[C@@H]4C[C@]4(c4cc(C(C)(F)F)on4)C3)CC2)o1 [Compound I-041]
[1]
  Ki: 240 nM
[3]
  Ki: 0.28 nM

## Cc1cc(CC(=O)N[C@H]2CC[C@H](CCN3C[C@@H]4C[C@]4(c4cc(C(C)(F)F)on4)C3)CC2)on1 [Compound I-042]
[1]
  Ki: 1300 nM
[3]
  Ki: 0.061 nM

## Cn1cc(CC(=O)N[C@H]2CC[C@H](CCN3C[C@@H]4C[C@]4(c4cc(C(C)(F)F)on4)C3)CC2)cn1 [Compound I-043]
[1]
  Ki: 270 nM
[3]
  Ki: 0.45 nM

## Cn1cc(OCC(=O)N[C@H]2CC[C@H](CCN3C[C@@H]4C[C@]4(c4cc(C(C)(F)F)on4)C3)CC2)cn1 [Compound I-044]
[1]
  Ki: 220 nM
[3]
  Ki: 0.83 nM

## CN1Cc2c(C(=O)N[C@H]3CC[C@H](CCN4C[C@@H]5C[C@]5(c5cc(C(C)(F)F)on5)C4)CC3)cccc2C1=O [Compound I-045]
[1]
  Ki: 86 nM
[3]
  Ki: 0.13 nM

## Cc1ncc(OCC(=O)N[C@H]2CC[C@H](CCN3C[C@@H]4C[C@]4(c4cc(C(C)(F)F)on4)C3)CC2)cn1 [Compound I-046]
[1]
  Ki: 330 nM
[2]
  P-gp ER ratio: 1.9
[3]
  Ki: 0.2 nM

## CCc1cc([C@]23C[C@H]2CN(CC[C@H]2CC[C@H](NC(=O)c4cccnc4C)CC2)C3)no1 [Compound I-047]
[1]
  Ki: 530 nM
[3]
  Ki: 1.4 nM

## CCc1cc([C@]23C[C@H]2CN(CC[C@H]2CC[C@H](NC(=O)COc4cnn(C)c4)CC2)C3)no1 [Compound I-048]
[1]
  Ki: 550 nM
[3]
  Ki: 0.71 nM

## CCc1cc([C@]23C[C@H]2CN(CC[C@H]2CC[C@H](NC(=O)COc4cnc(C)nc4)CC2)C3)no1 [Compound I-049]
[1]
  Ki: 830 nM
[3]
  Ki: 0.44 nM

## CCc1cc([C@]23C[C@H]2CN(CC[C@H]2CC[C@H](NC(=O)c4ccc(F)c5nn(C)cc45)CC2)C3)no1 [Compound I-050]
[1]
  Ki: 200 nM
[3]
  Ki: 0.42 nM

## CCc1cc([C@]23C[C@H]2CN(CC[C@H]2CC[C@H](NC(=O)/C=C/c4cnc(C)nc4)CC2)C3)no1 [Compound I-051]
[1]
  Ki: 380 nM
[3]
  Ki: 0.3 nM

## CCc1cc([C@]23C[C@H]2CN(CC[C@H]2CC[C@H](NC(=O)Cc4cnc(C)o4)CC2)C3)no1 [Compound I-052]
[1]
  Ki: 920 nM
[2]
  P-gp ER ratio: 2.4
[3]
  Ki: 0.58 nM

## CCc1cc([C@]23C[C@H]2CN(CC[C@H]2CC[C@H](NC(=O)Cc4cnn(C)n4)CC2)C3)no1 [Compound I-053]
[1]
  Ki: 1100 nM
[2]
  P-gp ER ratio: 1.9
[3]
  Ki: 0.48 nM

## CCc1cc([C@]23C[C@H]2CN(CC[C@H]2CC[C@H](NC(=O)Cc4ncc(C)o4)CC2)C3)no1 [Compound I-054]
[1]
  Ki: 780 nM
[3]
  Ki: 1.2 nM

## CCc1cc([C@]23C[C@H]2CN(CC[C@H]2CC[C@H](NC(=O)Cc4cc(C)no4)CC2)C3)no1 [Compound I-055]
[1]
  Ki: 850 nM
[3]
  Ki: 0.23 nM

## CCc1cc([C@]23C[C@H]2CN(CC[C@H]2CC[C@H](NC(=O)Cc4cnn(C)c4)CC2)C3)no1 [Compound I-056]
[1]
  Ki: 1000 nM
[3]
  Ki: 0.62 nM

## CCc1cc([C@]23C[C@H]2CN(CC[C@H]2CC[C@H](NC(=O)c4cccn5nccc45)CC2)C3)no1 [Compound I-057]
[1]
  Ki: 230 nM
[3]
  Ki: 0.47 nM

## CCc1cc([C@]23C[C@H]2CN(CC[C@H]2CC[C@H](NC(=O)Cc4noc(C)n4)CC2)C3)no1 [Compound I-058]
[1]
  Ki: 790 nM
[3]
  Ki: 1.3 nM

## CCc1cc([C@]23C[C@H]2CN(CC[C@H]2CC[C@H](NC(=O)Cc4nnc(C)s4)CC2)C3)no1 [Compound I-059]
[1]
  Ki: 550 nM
[3]
  Ki: 0.77 nM

## Cn1cc2c(C(=O)N[C@H]3CC[C@](F)(CCN4C[C@@H]5C[C@]5(c5cc(C(C)(F)F)on5)C4)CC3)cccc2n1 [II-1]
[1]
  Ki: > 2300 nM
[3]
  Ki: 0.42 nM

## Cn1cc2c(C(=O)N[C@H]3CC[C@H](CCN4CC5CC5(c5cc(C6CC6)on5)C4)CC3)cccc2n1 (some centres unmarked) [II-2]
[1]
  Ki: 380 nM
[3]
  Ki: 0.2 nM

## Cn1cc(CC(=O)N[C@H]2CC[C@H](CCN3C[C@@H]4C[C@]4(c4cc(C5CC5)on4)C3)CC2)cn1 [II-3]
[1]
  Ki: 730 nM
[3]
  Ki: 0.36 nM

## Cc1ncc(OCC(=O)N[C@H]2CC[C@H](CCN3C[C@@H]4C[C@]4(c4cc(C5CC5)on4)C3)CC2)cn1 [II-4]
[1]
  Ki: 730 nM
[3]
  Ki: 0.45 nM

## Cn1ncc(CC(=O)N[C@H]2CC[C@H](CCN3C[C@@H]4C[C@]4(c4cc(C5CC5)on4)C3)CC2)n1 [II-5]
[1]
  Ki: 860 nM
[3]
  Ki: 0.71 nM
